In patent US20260231994A1, “TASTE-ENHANCING COMPOSITION, METHOD FOR PRODUCING SAME, FOOD PRODUCT, AND METHOD FOR ENHANCING TASTE OF FOOD PRODUCT” (HOUSE FOODS GROUP INC., priority 2023, published 2026):

How the values were obtained:
Type in all cases: in vivo
[1] = Experiment 1 sensory evaluation of “boosting of flavor” (cyclic dipeptides, coriander); conditions: for “boosting of flavor” Average: cyclic dipeptide aqueous solution (concentration as in heat-treated coriander) at final 0.2% (w/w) in reduced-sodium curry roux dispersion, score 1-5; for “boosting of flavor” Evaluation: cyclic dipeptide aqueous solution at final 0.2% (w/w) in reduced-sodium curry roux dispersion, class of average score; for “boosting of flavor” in words: added to reduced-sodium curry roux dispersion, compared with no addition, unheated coriander or common curry roux
Description: Flour roux was prepared by putting 20 g of flour and 30 g of beef tallow in a pan, then heating with stirring at 120° C. To this flour roux were added 10 g of sodium chloride, 10 g of sugar, 10 g of cornstarch, 5 g of curry powder and 15 g of other seasoning ingredients (vegetable and fruit extracts, yeast extract and seafood extract), and after heat-treatment to 105° C., the mixture was cooled and solidified, to form a block of common curry roux.
The sodium chloride equivalent per 100 g of this curry roux was 10.6 g.
Reduced-sodium curry roux was prepared according to the same procedure, except that the amount of sodium chloride was reduced to 7 g from the amount in the common curry roux in (1).
The sodium chloride equivalent per 100 g of this reduced-sodium curry roux was 7.7 g.
Out of the cyclic dipeptides included in the heat-treated coriander prepared in 1.1. described above, which were confirmed to be increased in 1.2. above, an aqueous solution of the respective 14 cyclic dipeptides shown in the table described below was prepared. The concentration of the cyclic dipeptide in each aqueous solution was set to be equal to its concentration in the heat-treated coriander prepared in 1.1. described above, which was estimated from the ratio of the peak area of the cyclic dipeptide to the peak area of the internal standard (47 μg/g L-lysine-^13C6 monohydrochloride) confirmed in 1.2. described above.
Two dispersions of 44 g of the reduced-sodium curry roux in (2) dispersed in 300 g of hot water were prepared.
To one of them was added the heat-treated coriander or the powdered unheated coriander prepared in 1.1. described above, or the cyclic dipeptide aqueous solution (corresponding to the heat-treated coriander) prepared in (3) above, so that the final concentration was 0.2% (w/w), and a sensory evaluation was carried out.
Forty-four grams of the common curry roux in (1) was dispersed in 300 g of hot water.
The dispersion of reduced-sodium curry roux dispersed in hot water and the dispersion of common curry roux dispersed in hot water were used as comparative controls, and the strength of the flavor was evaluated by four evaluators on the basis of the following evaluation criteria from the viewpoint of “boosting of flavor.” The term “boosting of flavor” in this experiment is an effect concerted by the combination of sodium chloride and other foodstuffs in curry roux, and is an aspect of “saltiness.” Thus, the “flavor” in this experiment can be also expressed as “saltiness.”
The average of the evaluated scores was defined as “F” when it was 1.0 or lower, “C” when it was 1.1 or higher and 1.9 or lower, “B” when it was 2.0 or higher and 2.5 or lower, “A” when it was 2.6 or higher and 2.9 or lower, and “AA” when it was 3.0 or higher.

[2] = Experiment 6 sensory evaluation of cyclic dipeptides, “top sharp saltiness”
Summary of the method: (§1)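 Reduced-sodium curry roux (44 g in 300 g hot water) was spiked with cyclic dipeptide solutions matching heat-treated coriander or paprika levels, at 0.5% or 1.0% (w/w) final. Three evaluators scored each sample against unspiked reduced-sodium and common roux. Mean scores were graded F to AA.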

[3] = Experiment 6 sensory evaluation of cyclic dipeptides, “middle fullness (enhanced thickness)”
Summary of the method: as §1

[4] = Experiment 6 sensory evaluation of cyclic dipeptides, “boosting of last flavor (aftertaste)”
Summary of the method: as §1

[5] = Additive amount coriander 0.5% (heat-treated coriander equivalent aqueous solution, final 0.5% (w/w)), reduced-sodium curry roux
[6] = Additive amount coriander 0.5%, reduced-sodium curry roux
[7] = heat-treated coriander equivalent aqueous solution of cyclic dipeptide, final 1.0% (w/w) in reduced-sodium curry roux dispersion
[8] = heat-treated coriander equivalent aqueous solution of cyclic dipeptide, final 1.0% (w/w) in reduced-sodium curry roux dispersion, 3 evaluators
[9] = Additive amount paprika 0.5%, reduced-sodium curry roux
[10] = heat-treated paprika equivalent aqueous solution of cyclic dipeptide, final 1.0% (w/w) in reduced-sodium curry roux dispersion
[11] = heat-treated paprika equivalent aqueous solution of cyclic dipeptide, final 1.0% (w/w) in reduced-sodium curry roux dispersion, 3 evaluators

cyclic (Ala-Leu/Ile) [Coriander ID 32]
“boosting of flavor” Average [1]: 2.8 points | “boosting of flavor” Evaluation [1]: A (“A” when it was 2.6 or higher and 2.9 or lower) | Top sharp saltiness Average [2, 5]: 2.1 points | Top sharp saltiness Evaluation [2, 6]: B (“B” when it was 2.0 or higher and 2.5 or lower) | Top sharp saltiness Evaluation [2, 7]: B (“B” when it was 2.0 or higher and 2.5 or lower) | Top sharp saltiness Average [2, 8]: 2.5 points | Middle fullness Average [3, 6]: 2.2 points | Middle fullness Evaluation [3, 6]: B (“B” when it was 2.0 or higher and 2.5 or lower) | Middle fullness Evaluation [3, 7]: A (“A” when it was 2.6 or higher and 2.9 or lower) | Middle fullness Average [3, 8]: 2.8 points | Bosting of last flavor Average [4, 6]: 2.1 points | Bosting of last flavor Evaluation [4, 6]: B (“B” when it was 2.0 or higher and 2.5 or lower) | Bosting of last flavor Evaluation [4, 7]: AA (“AA” when it was 3.0 or higher) | Bosting of last flavor Average [4, 8]: 3.2 points

cyclic (Pro-His) [Coriander ID 15]
“boosting of flavor” in words [1]: comparable flavor to that of the dispersion of common curry roux | “boosting of flavor” Average [1]: 3.0 points | “boosting of flavor” Evaluation [1]: AA (“AA” when it was 3.0 or higher) | Top sharp saltiness Average [2, 5]: 2.2 points | Top sharp saltiness Evaluation [2, 6]: B (“B” when it was 2.0 or higher and 2.5 or lower) | Top sharp saltiness Evaluation [2, 7]: B (“B” when it was 2.0 or higher and 2.5 or lower) | Top sharp saltiness Average [2, 8]: 2.0 points | Middle fullness Average [3, 6]: 2.5 points | Middle fullness Evaluation [3, 6]: B (“B” when it was 2.0 or higher and 2.5 or lower) | Middle fullness Evaluation [3, 7]: AA (“AA” when it was 3.0 or higher) | Middle fullness Average [3, 8]: 3.0 points | Bosting of last flavor Average [4, 6]: 2.5 points | Bosting of last flavor Evaluation [4, 6]: B (“B” when it was 2.0 or higher and 2.5 or lower) | Bosting of last flavor Evaluation [4, 7]: AA (“AA” when it was 3.0 or higher) | Bosting of last flavor Average [4, 8]: 3.0 points

cyclic (Ala-Val) [Coriander ID 27]
“boosting of flavor” in words [1]: comparable flavor to that of the dispersion of common curry roux | “boosting of flavor” Average [1]: 3.0 points | “boosting of flavor” Evaluation [1]: AA (“AA” when it was 3.0 or higher) | Top sharp saltiness Average [2, 5]: 2.3 points | Top sharp saltiness Evaluation [2, 6]: B (“B” when it was 2.0 or higher and 2.5 or lower) | Top sharp saltiness Evaluation [2, 7]: B (“B” when it was 2.0 or higher and 2.5 or lower) | Top sharp saltiness Average [2, 8]: 2.5 points | Middle fullness Average [3, 6]: 2.2 points | Middle fullness Evaluation [3, 6]: B (“B” when it was 2.0 or higher and 2.5 or lower) | Middle fullness Evaluation [3, 7]: AA (“AA” when it was 3.0 or higher) | Middle fullness Average [3, 8]: 3.0 points | Bosting of last flavor Average [4, 6]: 2.3 points | Bosting of last flavor Evaluation [4, 6]: B (“B” when it was 2.0 or higher and 2.5 or lower) | Bosting of last flavor Evaluation [4, 7]: A (“A” when it was 2.6 or higher and 2.9 or lower) | Bosting of last flavor Average [4, 8]: 2.7 points

cyclic (Pro-Met) [Coriander ID 53]
“boosting of flavor” Average [1]: 2.3 points | “boosting of flavor” Evaluation [1]: B (“B” when it was 2.0 or higher and 2.5 or lower) | Top sharp saltiness Average [2, 5]: 3.0 points | Top sharp saltiness Evaluation [2, 6]: AA (“AA” when it was 3.0 or higher) | Top sharp saltiness Evaluation [2, 7]: AA (“AA” when it was 3.0 or higher) | Top sharp saltiness Average [2, 8]: 3.0 points | Middle fullness Average [3, 6]: 3.2 points | Middle fullness Evaluation [3, 6]: AA (“AA” when it was 3.0 or higher) | Middle fullness Evaluation [3, 7]: AA (“AA” when it was 3.0 or higher) | Middle fullness Average [3, 8]: 3.0 points | Bosting of last flavor Average [4, 6]: 3.0 points | Bosting of last flavor Evaluation [4, 6]: AA (“AA” when it was 3.0 or higher) | Bosting of last flavor Evaluation [4, 7]: AA (“AA” when it was 3.0 or higher) | Bosting of last flavor Average [4, 8]: 3.8 points

cyclic (Arg-Pro) [Coriander ID 45]
“boosting of flavor” Average [1]: 2.0 points | “boosting of flavor” Evaluation [1]: B (“B” when it was 2.0 or higher and 2.5 or lower) | Top sharp saltiness Average [2, 5]: 2.0 points | Top sharp saltiness Evaluation [2, 6]: B (“B” when it was 2.0 or higher and 2.5 or lower) | Top sharp saltiness Evaluation [2, 7]: C (“C” when it was 1.1 or higher and 1.9 or lower) | Top sharp saltiness Average [2, 8]: 1.8 points | Middle fullness Average [3, 6]: 2.5 points | Middle fullness Evaluation [3, 6]: B (“B” when it was 2.0 or higher and 2.5 or lower) | Middle fullness Evaluation [3, 7]: B (“B” when it was 2.0 or higher and 2.5 or lower) | Middle fullness Average [3, 8]: 2.0 points | Bosting of last flavor Average [4, 6]: 2.8 points | Bosting of last flavor Evaluation [4, 6]: A (“A” when it was 2.6 or higher and 2.9 or lower) | Bosting of last flavor Evaluation [4, 7]: B (“B” when it was 2.0 or higher and 2.5 or lower) | Bosting of last flavor Average [4, 8]: 2.2 points

cyclic (Ala-Arg) [Coriander ID 11]
Top sharp saltiness Average [2, 5]: 2.0 points | Top sharp saltiness Evaluation [2, 6]: B (“B” when it was 2.0 or higher and 2.5 or lower) | Top sharp saltiness Evaluation [2, 7]: B (“B” when it was 2.0 or higher and 2.5 or lower) | Top sharp saltiness Average [2, 8]: 2.2 points | Middle fullness Average [3, 6]: 1.8 points | Middle fullness Evaluation [3, 6]: C (“C” when it was 1.1 or higher and 1.9 or lower) | Middle fullness Evaluation [3, 7]: B (“B” when it was 2.0 or higher and 2.5 or lower) | Middle fullness Average [3, 8]: 2.7 points | Bosting of last flavor Average [4, 6]: 1.8 points | Bosting of last flavor Evaluation [4, 6]: B (“B” when it was 2.0 or higher and 2.5 or lower) | Bosting of last flavor Evaluation [4, 7]: A (“A” when it was 2.6 or higher and 2.9 or lower) | Bosting of last flavor Average [4, 8]: 2.7 points

cyclic (Gly-Arg) [Coriander ID 7]
Top sharp saltiness Average [2, 5]: 2.5 points | Top sharp saltiness Evaluation [2, 6]: B (“B” when it was 2.0 or higher and 2.5 or lower) | Top sharp saltiness Evaluation [2, 7]: C (“C” when it was 1.1 or higher and 1.9 or lower) | Top sharp saltiness Average [2, 8]: 1.3 points | Middle fullness Average [3, 6]: 3.2 points | Middle fullness Evaluation [3, 6]: AA (“AA” when it was 3.0 or higher) | Middle fullness Evaluation [3, 7]: C (“C” when it was 1.1 or higher and 1.9 or lower) | Middle fullness Average [3, 8]: 1.7 points | Bosting of last flavor Average [4, 6]: 3.0 points | Bosting of last flavor Evaluation [4, 6]: AA (“AA” when it was 3.0 or higher) | Bosting of last flavor Evaluation [4, 7]: C (“C” when it was 1.1 or higher and 1.9 or lower) | Bosting of last flavor Average [4, 8]: 1.5 points

cyclic (Glu-Arg) [Coriander ID 8]
Top sharp saltiness Average ([2]; Additive amount paprika 0.5% (heat-treated paprika equivalent aqueous solution, final 0.5% (w/w)), reduced-sodium curry roux): 1.8 points | Top sharp saltiness Evaluation [2, 9]: C (“C” when it was 1.1 or higher and 1.9 or lower) | Top sharp saltiness Evaluation [2, 10]: B (“B” when it was 2.0 or higher and 2.5 or lower) | Top sharp saltiness Average [2, 11]: 2.2 points | Middle fullness Average [3, 9]: 2.2 points | Middle fullness Evaluation [3, 9]: B (“B” when it was 2.0 or higher and 2.5 or lower) | Middle fullness Evaluation [3, 10]: B (“B” when it was 2.0 or higher and 2.5 or lower) | Middle fullness Average [3, 11]: 2.5 points | Bosting of last flavor Average [4, 9]: 2.7 points | Bosting of last flavor Evaluation [4, 9]: A (“A” when it was 2.6 or higher and 2.9 or lower) | Bosting of last flavor Evaluation [4, 10]: B (“B” when it was 2.0 or higher and 2.5 or lower) | Bosting of last flavor Average [4, 11]: 2.3 points
